Values of other authors as cited in patent US7569576B2, “Cyclic 1-(acyloxy)-alkyl prodrugs of GABA analogs, compositions and uses thereof” (XenoPort, Inc., priority 2002, dated 2009).

SMILES: O=C1CC2(CCCCC2)CN1 [lactam 9]
- toxicity (LD50, mouse): 300 mg/kg

SMILES: NCC1(CC(=O)O)CCCCC1 [gabapentin]
- toxicity (LD50, mouse): more than 8000 mg/kg
